pEC50: −log10 of the molar value.
Assays:
[1] = tested on: B16-OVA melanoma; test: Tumor-infiltrating leukocyte analysis in B16-OVA tumors (flow cytometry); assay type: in vivo, mouse
Method: A total of 2×10^5 B16-OVA cells in 100 μL PBS were injected s.c. into the flank of each mouse to establish tumors (n=6 mice per treatment). 10 mg/kg Diprovocim-1 or 2 mg/kg alum with OVA (100 μg) was injected i.m. into mice on day 3 after tumor inoculation. Mice received a booster shot seven days after the first immunization. On day 3, 6, 9, and 12 after tumor inoculation, mice were also injected i.p. with 200 μg anti-mPD-L1.
On day 14 after tumor inoculation, tumors were harvested, minced and filtered through a 40-μm strainer to obtain single-cell suspensions. Red blood cells were lysed with RBC lysis buffer (Sigma). After pelleting, cells were stained with a mixture of antibodies for 45 minutes, including anti-mouse CD45.2-PE or CD45.2-APC (BioLegend), anti-mouse CD3-FITC (BD Biosciences), anti-mouse CD4-BV786 (BD Biosciences), anti-mouse CD8-BV510 (BioLegend), anti-mouse CD44-PE-CF594 (BioLegend), APC-conjugated H-2Kb/OVA (SIINFEKL; SEQ ID NO: XX) tetramer (Baylor College of Medicine), anti-mouse F4/80-PE (Tonbo Bioscience), anti-mouse CD11b-BV605 (BioLegend), anti-CD11c-BV711 (BD Biosciences), anti-NK1.1-BV650 (BD Biosciences). Then, the cells were washed twice with PBS. Stained cells were analyzed with an LSRII instrument (BD Biosciences) and the flow cytometry data were analyzed using FlowJo software.

[2] = tested on: B16-OVA melanoma; test: B16-OVA melanoma, post-tumor treatment (immunization day 3 after tumor inoculation); assay type: in vivo, mouse; conditions: post-tumor treatment
Method: C57BL/6J mice (n=8 mice per treatment) were injected s.c. with 2×10^5 B16-OVA melanoma cells on day 0. For pre-tumor treatment, mice were immunized i.m. with OVA (100 μg) mixed with vehicle or Diprovocim (10 mg/kg) or alum (2 mg/kg) on the same day prior to tumor injection. Mice received a booster immunization seven days later in which anti-PD-L1 (200 μg) was administered on days 3, 6 and 9 after tumor inoculation by i.p. injection. For post-tumor treatment, initial immunization was on day 3 after tumor inoculation, with a booster seven days later. Anti-PD-L1 (200 μg) was administered on days 3, 6, 9, 12, and 15 after tumor inoculation by i.p. injection. […] P values for tumor volume analysis apply to the final time point as indicated in graphs and were calculated by Student's t test. P values for survival analysis were calculated by Kaplan-Meier analysis. All results are representative of two independent studies.
For post-treatment, 10 mg/kg Diprovocim-1 or 2 mg/kg Alum with OVA (100 μg) was injected i.m. into mice on day 3 after tumor inoculation. Mice received a booster shot seven days after the first immunization. On day 3, 6, 9, 12 and 15 after tumor inoculation, mice were also injected i.p. with 200 μg anti-mPD-L1 in 100 μl saline.
Tumors were measured with a digital caliper (Fisher) and the tumor sizes were calculated using the following formula: volume=0.5×length×width^2. […]

[3] = tested on: mouse peritoneal macrophages; test: IFN-β secretion by mouse peritoneal macrophages (ELISA); assay type: cell-based; conditions: 4 hours
Method: (§1) Thioglycollate-elicited macrophages were recovered 4 days after i.p. injection of 2 ml BBL thioglycollate medium, brewer modified (4% wt/vol; BD Biosciences) by peritoneal lavage with 5 ml phosphate buffered saline (PBS). The peritoneal macrophages were cultured in DMEM cell culture medium [DMEM containing 10% vol/vol FBS (Gemini Bio Products), 1% vol/vol penicillin and streptomycin (Life Technologies)] at 37° C. and 95% air/5% CO2.
(§2) Cells were seeded onto 96-well plates at 1×10^5 cells per well and stimulated with a Diprovocim (dissolved in DMSO, and final DMSO concentrations (0.2%) were kept constant in all experiments) for 4 h. Mouse TNF, IL-6, or IFN-β, or human TNF in the supernatants were measured by ELISA kits according to the manufacturer's instructions (eBioscience and PBL Assay Science). Pretreatment with 20 μg/ml anti-TLR1, anti-TLR2 or isotype control antibody (eBioscience) was for 1 hour. Unless otherwise indicated, mouse cells were from wild type C57BL/6J mice.

[4] = tested on: mouse BMDC; test: TNF production by mouse bone marrow-derived dendritic cells (ELISA); assay type: cell-based; conditions: 4 hours, read-out: EC50, dose-dependent TNF production
Method: For murine BMDCs, bone morrow cells were cultured in Petri dishes in 10 ml DMEM cell culture medium containing 10 ng/ml of murine GM-CSF (R&D Systems). On day 3 of culture, this was replaced with fresh GM-CSF medium. Loosely adherent cells were transferred to a fresh Petri dish and cultured for an additional 4 d. Human PBMC were purchased from Stemcell Technologies. THP-1 (ATCC) cells were differentiated by treatment with 100 nM PMA (Sigma) in RPMI cell culture medium [RPMI containing 10% vol/vol FBS (Gemini Bio Products), 1% penicillin and streptomycin (Life Technologies)] for 24 hours. After that, cells were washed with PBS and cultured in fresh RPMI cell culture medium for 24 hours before use in studies.
as §2

[5] = tested on: mouse peritoneal macrophages; test: TNF production by mouse peritoneal macrophages (ELISA); assay type: cell-based; conditions: Peritoneal macrophage, 4 hours, read-out: EC50, dose-dependent TNF production
Method: as §1, §2

[6] = tested on: C57BL/6J mice; test: Immunization with OVA and measurement of antibody response; assay type: in vivo, mouse
Method: EndoFit ovalbumin (OVA) with 98% purity minimum (SDS-PAGE) and endotoxin levels <1 EU/mg was purchased from Invivogen. Mice (4 mice per group) were immunized i.m. with 100 μg OVA mixed with vehicle (DMSO:Tween 80:saline=1:1:8), with 10 mg/kg Diprovocim, or with 2 mg/kg Alum (Alhydrogel adjuvant 2%, Invivogen). After 14 days, serum titers of OVA-specific IgG, IgG1, or IgG2b (SouthernBiotech) were measured by ELISA.

[7] = tested on: mouse TLR1/TLR2 heterodimer; test: TNF induction in peritoneal macrophages from mice deficient in TLR signaling components; assay type: cell-based; conditions: 500 nM, 4 hours, vs C57BL/6J cells
From the text: (§3) C57BL/6J, Tlr2^−/−, Myd88^−/− and OT-I mice were purchased from The Jackson Laboratory. Ly96^−/− (MD-2^−/−) mice were from RIKEN BRC. Tlr4^1ps3/lps3, Tlr6^int/int, Tlr7^rsql/rsql, Tirapt^tor/tor, Ticam1^Lps2/Lps2, Ticam1^Lps2/Lps2/Irak4^otiose/otiose mice were generated on a pure C57BL/6J background by ENU mutagenesis and are described at http://mutagenetix.utsouthwestern.edu.
(§4) Tlr1^−/− mice were created by CRISPR/Cas 9 gene targeting. Female C57BL/6J mice were superovulated by injection of 6.5 U pregnant mare serum gonadotropin (PMSG; Millipore), followed by injection of 6.5 U human chorionic gonadotropin (hCG; Sigma-Aldrich) 48 hours later. The superovulated mice were subsequently mated overnight with C57BL/6J male mice. The following day, fertilized eggs were collected from the oviducts and in vitro-transcribed Cas9 mRNA (50 ng/μl) and Tlr1 small base-pairing guide RNA (50 ng/μl; 5′-[…]-3′; SEQ ID NO: XX) were injected into the cytoplasm or pronucleus of the embryos. […]
as §2, with “Pretreatment with 20 μg/ml anti-TLR1, anti-TLR2 or isotype control antibody (eBioscience) was for 1 hour. Unless otherwise indicated, mouse cells were from wild type C57BL/6J mice.” left out

[8] = molecular target: T1, mouse TLR1/TLR2 heterodimer (Mus musculus, UniProt Q9EPQ1+Q9QUN7); test: as above; assay type: cell-based; conditions: 500 nM, 4 hours, vs C57BL/6J cells
T1 construct: endogenous in cells; host or cells: thioglycollate-elicited peritoneal macrophages of C57BL/6J mice (wild type and knockout/mutant genotypes)
T1 sequence (Q9EPQ1 26-795): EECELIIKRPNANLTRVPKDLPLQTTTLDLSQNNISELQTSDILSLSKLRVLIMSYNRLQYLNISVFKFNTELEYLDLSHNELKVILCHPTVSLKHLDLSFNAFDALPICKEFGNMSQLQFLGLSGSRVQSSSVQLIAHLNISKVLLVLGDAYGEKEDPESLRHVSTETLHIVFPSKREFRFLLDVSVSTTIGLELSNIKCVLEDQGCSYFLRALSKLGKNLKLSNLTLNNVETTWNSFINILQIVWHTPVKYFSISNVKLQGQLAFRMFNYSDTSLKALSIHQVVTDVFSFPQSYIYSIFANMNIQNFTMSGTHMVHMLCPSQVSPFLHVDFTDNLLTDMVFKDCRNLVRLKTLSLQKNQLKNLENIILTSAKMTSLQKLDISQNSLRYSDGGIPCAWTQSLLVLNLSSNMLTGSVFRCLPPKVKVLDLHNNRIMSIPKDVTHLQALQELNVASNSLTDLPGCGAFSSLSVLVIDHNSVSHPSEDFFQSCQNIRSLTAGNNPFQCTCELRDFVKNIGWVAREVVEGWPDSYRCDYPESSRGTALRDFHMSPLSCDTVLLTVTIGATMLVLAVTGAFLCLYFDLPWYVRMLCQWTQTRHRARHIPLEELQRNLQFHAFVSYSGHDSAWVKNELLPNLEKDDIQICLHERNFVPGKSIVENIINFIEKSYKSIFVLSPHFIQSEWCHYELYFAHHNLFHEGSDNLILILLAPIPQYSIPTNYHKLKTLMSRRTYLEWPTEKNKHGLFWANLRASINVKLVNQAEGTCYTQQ
T1 sequence (Q9QUN7 25-784): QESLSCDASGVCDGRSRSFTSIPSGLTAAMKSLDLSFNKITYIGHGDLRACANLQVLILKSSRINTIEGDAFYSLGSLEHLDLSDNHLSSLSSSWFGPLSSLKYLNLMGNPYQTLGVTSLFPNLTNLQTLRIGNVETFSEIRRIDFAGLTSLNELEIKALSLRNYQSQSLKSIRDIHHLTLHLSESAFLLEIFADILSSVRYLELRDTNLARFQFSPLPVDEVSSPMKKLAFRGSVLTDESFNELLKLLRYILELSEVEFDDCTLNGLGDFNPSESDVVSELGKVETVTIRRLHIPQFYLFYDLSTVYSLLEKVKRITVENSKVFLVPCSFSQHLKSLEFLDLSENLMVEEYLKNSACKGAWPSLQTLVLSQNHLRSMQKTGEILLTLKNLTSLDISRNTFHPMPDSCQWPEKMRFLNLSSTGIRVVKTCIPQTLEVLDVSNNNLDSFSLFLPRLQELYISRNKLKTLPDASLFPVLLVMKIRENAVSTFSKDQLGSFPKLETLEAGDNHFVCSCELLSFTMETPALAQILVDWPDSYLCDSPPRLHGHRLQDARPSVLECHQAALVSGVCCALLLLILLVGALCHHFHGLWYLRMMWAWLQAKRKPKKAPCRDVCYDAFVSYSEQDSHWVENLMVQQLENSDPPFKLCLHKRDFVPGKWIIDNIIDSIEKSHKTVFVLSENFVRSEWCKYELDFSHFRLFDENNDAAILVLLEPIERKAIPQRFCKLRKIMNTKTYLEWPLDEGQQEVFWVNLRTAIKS
From the text: as §3, §4
as §2, with “Pretreatment with 20 μg/ml anti-TLR1, anti-TLR2 or isotype control antibody (eBioscience) was for 1 hour. Unless otherwise indicated, mouse cells were from wild type C57BL/6J mice.” left out

O=C(N[C@H]1C[C@@H]1c1ccccc1)[C@@H]1CN(C(=O)c2ccc(C(=O)N3C[C@@H](C(=O)N[C@H]4C[C@@H]4c4ccccc4)[C@H](C(=O)N[C@H]4C[C@@H]4c4ccccc4)C3)cc2)C[C@H]1C(=O)N[C@H]1C[C@@H]1c1ccccc1 [Diprovocim-1, (3S,3'S,4S,4'S)-1,1′-Terephthaloylbis(N^3,N^4-bis((1S,2R)-2-phenylcyclo-propyl)pyrrolidine-3,4-dicarboxamide)]
frequency of leukocytes (TILs) in tumors compared to vehicle+OVA ([1]; day 14, immunization day 3 and 10, plus anti-PD-L1): significantly increased | frequency of NK cells in tumors ([1]; day 14, vs vehicle+OVA): increased | frequency of OVA-specific CD8 T cells in tumors ([1]; day 14, vs vehicle+OVA): increased | frequency of total and activated (CD44high) CD4 T cells in tumors ([1]; day 14, vs vehicle+OVA): increased | frequency of total and activated (CD44high) CD8 T cells in tumors ([1]; day 14, vs vehicle+OVA): increased | effect on tumor growth, survival rate, and survival time compared with alum [2]: superior to that of alum | type I IFN (IFN-β) production [3]: failed to stimulate type I IFN production | type I IFN (IFN-β) production ([3]; listed as Diprovocim): does not stimulate IFN-β secretion | pEC50 [4]: 8.17 | pEC50 [5]: 8.89 | adjuvant activity in antigen-specific antibody production in TLR2-deficient mice ([6]; Tlr2−/− mice): abrogated | serum OVA-specific IgG compared to OVA plus vehicle ([6]; wild type mice, i.m. with 100 μg OVA, Diprovocim 10 mg/kg or alum 2 mg/kg, day 14): highly elevated | induction of TNF in TLR1- or TLR2-deficient macrophages [7]: completely absent | activity (TNF) in macrophages from MyD88-, TIRAP-, and IRAK4-deficient cells [8]: dramatically reduced
